One test deals with CC acylase. The test is described as follows: Residual CC acylase activity after addition of surfactant (7-ACA produced from GL7-ACA). Type of test: biochemical, Pseudomonas. The note with it: for residual activity (CC acylase): room temperature 16 hours, relative to activity before addition as 100. Here is the method: (§1) Mutant CC acylase N-176 producing E. coli JM 109 (PCCN 176-2) FERM BP-3047 was cultured according to the method disclosed in Example 3 of Japanese Patent Unexamined Publication No. 584078 and the cells were harvested by centrifugation. The obtained cell pellets were disrupted with a homogenizer and soluble protein component was extracted with water, which was followed by centrifugation to remove debris, whereby a crude extract solution was obtained.
(§2) Polyethyleneimine was added to the crude extract solution obtained in the above-mentioned (1) to allow precipitation of the nucleic acid, which was followed by centrifugation to recover supernatant. This supernatant was applied to DEAE column equilibrated with phosphate buffer (pH 7.0), washed with water and eluted with 0.2M-NaCl. […] The activities of CC acylase and deacetylase in each sample before and after the addition of the surfactant were measured and the changes thereof were examined. The enzyme activity was calculated by quantitatively determining 7-ACA and deacetyl 7-ACA produced from GL7-ACA as a substrate.

Another test concerns deacetylase. In words: Residual contaminant deacetylase activity after addition of surfactant (deacetyl 7-ACA produced from GL7-ACA). Format: biochemical. The note with it: for residual activity (deacetylase): room temperature 16 hours, relative to activity before addition as 100. Here is the method:
as §1, §2

[1] abbreviates: surfactant addition concentration 0.1%.
Setting [2] is: surfactant addition concentration 0.3%.
Setting [3] is: surfactant addition concentration 0.5%.
The mark [4] stands for this setting: surfactant concentration 0.1-0.3%.

In the case of “polyoxyethylenesorbitan monooleate [Nonion TO-221]”, the “residual activity (CC acylase)” value in the test on CC acylase (setting [1]), in the test on CC acylase (setting [2]) and in the test with CC acylase (setting [3]) was 100 each time. Besides, the “residual activity (deacetylase)” value is reported as 50 in the test with deacetylase (setting [1]), 50 in the test with deacetylase (setting [2]) and 45 in the test with deacetylase (setting [3]).

With “alkyl(palm)trimethyl ammonium chloride [Cation FB]”, the “residual activity (CC acylase)” value in the test on CC acylase (setting [1]) was found to be 100; with CC acylase (setting [2]) it was 100; with CC acylase (setting [3]), 80. Moreover, the “residual activity (deacetylase)” value is 55 with deacetylase (setting [1]), 40 in the test on deacetylase (setting [2]) and 1 in the test on deacetylase (setting [3]).

With `CCCCCCCCCCCC[N+](C)(C)C.[Cl-]` [Cation BB, dodecyltrimethyl ammonium chloride], the results for the “residual activity (CC acylase)” value in the test on CC acylase (setting [1]), in the test on CC acylase (setting [2]) and in the test on CC acylase (setting [3]) were 100, 100 and 85, respectively. The “residual activity (deacetylase)” value is given as 55 in the test on deacetylase (setting [1]), 45 in the test on deacetylase (setting [2]) and 5 in the test with deacetylase (setting [3]).

In the case of “polyoxyethylene octylphenyl ether [Nonion HS-210]”, the “residual activity (CC acylase)” value with CC acylase (setting [1]), in the test with CC acylase (setting [2]) and in the test on CC acylase (setting [3]) was 100 each time. Further, the “residual activity (deacetylase)” value came to 50 in the test with deacetylase (setting [1]), 50 in the test on deacetylase (setting [2]) and 45 with deacetylase (setting [3]).

For the compound “alkyl(palm)dimethylbenzyl ammonium chloride [Cation F2-50]”, the “residual activity (CC acylase)” value in the test with CC acylase (setting [1]) was 95; with CC acylase (setting [2]), 92; with CC acylase (setting [3]), 70. Further, the “CC acylase residual activity” value with CC acylase (setting [4]) is at least 90%. In addition, the “residual activity (deacetylase)” value stood at 5 with deacetylase (setting [1]), 1 in the test on deacetylase (setting [2]) and 0 with deacetylase (setting [3]). Moreover, the “activity of contaminant deacetylase” value in the test with deacetylase (setting [4]) is given as “not more than 5%”. In addition, the removal of deacetylase result in the test on deacetylase (surfactant concentration 0.5%) is reported as “removed nearly completely”.

As for alkyl glycine [Nissan Anon LG], the “residual activity (CC acylase)” value stood at 100 with CC acylase (setting [1]), 100 in the test on CC acylase (setting [2]) and 95 in the test with CC acylase (setting [3]). Moreover, the “residual activity (deacetylase)” value with deacetylase (setting [1]) is 60; with deacetylase (setting [2]), 50; in the test with deacetylase (setting [3]), 30.

These data come from patent US6630338B2, “Removing deacetylase contaminant from cephalosporin C acylase using cationic surfactant” (Fujisawa Pharmaceutical Co., Ltd., priority 1996, dated 2003).
